Data: patent US20230019491A1, “PYRIMIDINE TBK/IKKe INHIBITOR COMPOUNDS AND USES THEREOF” (Merck Patent GmbH, priority 2017, published 2023)

Legend:
IKKε = biological target: T1, IKKε (Homo sapiens, UniProt Q14164); test: IKKε biochemical assay; settings: 10 point 1:4 dose response, 30 uM top concentration, 90 min at 25° C., LabChip EZ Reader II; read-out: IKKε_IC50
T1 sequence (Q14164 1-716): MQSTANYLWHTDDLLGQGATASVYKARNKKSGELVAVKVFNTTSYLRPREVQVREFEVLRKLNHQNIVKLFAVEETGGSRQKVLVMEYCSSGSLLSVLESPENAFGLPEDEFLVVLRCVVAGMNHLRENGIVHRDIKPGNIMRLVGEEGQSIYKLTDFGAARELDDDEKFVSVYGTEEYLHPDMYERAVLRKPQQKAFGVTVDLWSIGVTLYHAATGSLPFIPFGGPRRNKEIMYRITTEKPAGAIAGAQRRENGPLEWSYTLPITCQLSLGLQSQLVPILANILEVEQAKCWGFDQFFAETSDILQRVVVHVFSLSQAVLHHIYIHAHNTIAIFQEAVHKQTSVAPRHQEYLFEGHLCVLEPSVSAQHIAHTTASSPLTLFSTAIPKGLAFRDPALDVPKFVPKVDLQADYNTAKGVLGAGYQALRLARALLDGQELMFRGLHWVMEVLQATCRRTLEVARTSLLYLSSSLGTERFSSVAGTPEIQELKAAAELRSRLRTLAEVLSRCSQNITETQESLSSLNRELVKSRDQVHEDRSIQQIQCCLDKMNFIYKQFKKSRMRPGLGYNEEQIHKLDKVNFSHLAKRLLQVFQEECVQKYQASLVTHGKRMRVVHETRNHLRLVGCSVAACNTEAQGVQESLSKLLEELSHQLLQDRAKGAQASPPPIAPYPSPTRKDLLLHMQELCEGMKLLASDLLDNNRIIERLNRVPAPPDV
Summary of the method: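 Compounds in 1% DMSO final were incubated with IKKε enzyme and substrate at 25° C. for 90 min, then stopped. Substrate and product peaks were resolved by LabChip EZ Reader II mobility-shift read-out. Staurosporine at 10 uM final served as the full-inhibition control.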

TBK1 = biological target: T2, TBK1 (Homo sapiens, UniProt Q9UHD2); test: TBK biochemical assay; settings: 10 point 1:4 dose response, 30 uM top concentration, 90 min at 25° C., LabChip EZ Reader II; read-out: TBK1_IC50
T2 sequence (Q9UHD2 1-729): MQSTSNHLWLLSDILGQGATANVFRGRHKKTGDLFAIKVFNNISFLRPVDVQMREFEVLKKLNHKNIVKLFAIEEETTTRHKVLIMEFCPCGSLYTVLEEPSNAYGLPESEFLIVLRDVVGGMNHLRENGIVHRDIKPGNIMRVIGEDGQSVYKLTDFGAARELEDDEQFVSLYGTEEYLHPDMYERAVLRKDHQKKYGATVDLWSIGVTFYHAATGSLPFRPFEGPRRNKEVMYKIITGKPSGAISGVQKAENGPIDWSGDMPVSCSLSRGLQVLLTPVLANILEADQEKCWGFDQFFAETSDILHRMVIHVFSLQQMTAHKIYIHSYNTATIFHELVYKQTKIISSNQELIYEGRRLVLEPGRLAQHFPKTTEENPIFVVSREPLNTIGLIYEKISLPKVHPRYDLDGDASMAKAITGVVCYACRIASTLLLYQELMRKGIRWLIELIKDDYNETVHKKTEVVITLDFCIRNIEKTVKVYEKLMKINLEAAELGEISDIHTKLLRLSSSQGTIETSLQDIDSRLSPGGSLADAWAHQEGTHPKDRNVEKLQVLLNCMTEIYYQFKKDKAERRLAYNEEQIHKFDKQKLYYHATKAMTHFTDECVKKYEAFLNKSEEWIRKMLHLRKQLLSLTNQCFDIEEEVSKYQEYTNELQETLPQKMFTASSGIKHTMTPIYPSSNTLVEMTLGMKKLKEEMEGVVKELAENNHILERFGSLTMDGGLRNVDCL
Summary of the method: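 Substrate and product were separated and quantified by microfluidic mobility-shift read (LabChip). 10 uM staurosporine served as the full-inhibition control, and the reference compound was tested from 1 uM final.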

| Compound | IC50 (IKKε) [µM] | IC50 (TBK1) [µM] |
| --- | --- | --- |
| COc1nc(Nc2nccc(-c3ccc(O[C@H]4CCN(C(=O)[C@H](C)O)CC4(F)F)c(C#N)c3)n2)ccc1N1CCN(C2COC2)[C@@H](C)C1 [Example 247, 2 2-[(S)-3,3-Difluoro-1-((S)-2-hydroxy-propionyl)-piperidin-4-yloxy]-5-{2-[6-methoxy-5-((S)-3-methyl-4-oxetan-3-yl-piperazin-1-yl)-pyridin-2-ylamino]-pyrimidin-4-yl}-benzonitrile] | < 0.1 | < 0.1 |
| COc1nc(Nc2nccc(-c3ccc(O[C@@H]4CCN(C(=O)[C@H](C)O)CC4(F)F)c(C#N)c3)n2)ccc1N1CCN(C2COC2)[C@@H](C)C1 [Example 248, 2 2-[(R)-3,3-Difluoro-1-((S)-2-hydroxy-propionyl)-piperidin-4-yloxy]-5-{2-[6-methoxy-5-((S)-3-methyl-4-oxetan-3-yl-piperazin-1-yl)-pyridin-2-ylamino]-pyrimidin-4-yl}-benzonitrile] | < 0.1 | < 0.1 |
| CCOc1nc(Nc2nccc(-c3ccc(OC4CCN(C(=O)[C@H](C)O)CC4(F)F)c(C#N)c3)n2)ccc1N1CCN(C2COC2)CC1 (stereo partly drawn) [Example 249, 2-([33-difluoro-1-[(2S)-2-hydroxypropanoyl]piperidin-4-yl]oxy)-5-[2-([6-ethoxy-5-[4-(oxetan-3-yl)piperazin-1-yl]pyridin-2-yl]amino)pyrimidin-4-yl]benzonitrile] | < 0.1 | < 0.1 |
| COc1nc(Nc2nccc(-c3ccc(OC4CCN(C(=O)C5CCO5)CC4(F)F)c(C#N)c3)n2)ccc1N1CCN(C2COC2)CC1 (centres unmarked) [Example 250, 2-[3,3-Difluoro-1-(oxetane-2-carbonyl)-piperidin-4-yloxy]-5-{2-[6-methoxy-5-(4-oxetan-3-yl-piperazin-1-yl)-pyridin-2-ylamino]-pyrimidin-4-yl}-benzonitrile] | < 0.1 | < 0.1 |
| COc1nc(Nc2nccc(-c3ccc(OC4CCN(C(=O)C(C)C#N)CC4(F)F)c(C#N)c3)n2)ccc1N1CCN(C2COC2)CC1 (centres unmarked) [Example 251, 2-[1-(2-Cyano-2-methyl-acetyl)-33-difluoro-piperidin-4-yloxy]-5-{2-[6-methoxy-5-(4-oxetan-3-yl-piperazin-1-yl)-pyridin-2-ylamino]-pyrimidin-4-yl}-benzonitrile] | < 0.1 | < 0.1 |
| COc1nc(Nc2nccc(-c3ccc(OC4CCN(C(=O)[C@@H](C)CO)CC4(F)F)c(C#N)c3)n2)ccc1N1CCN(C2COC2)CC1 (stereo partly drawn) [Example 252, 2-[3,3-Difluoro-1-((S)-3-hydroxy-2-methyl-propionyl)-piperidin-4-yloxy]-5-{2-[6-methoxy-5-(4-oxetan-3-yl-piperazin-1-yl)-pyridin-2-ylamino]-pyrimidin-4-yl}-benzonitrile] | < 0.1 | < 0.1 |
| COc1nc(Nc2nccc(-c3ccc(OC4CCN(C(=O)CC#N)CC4(F)F)c(C#N)c3)n2)ccc1N1CCN(C2COC2)CC1 (centres unmarked) [Example 253, 2-[1-(2-Cyano-acetyl)-3,3-difluoro-piperidin-4-yloxy]-5-{2-[6-methoxy-5-(4-oxetan-3-yl-piperazin-1-yl)-pyridin-2-ylamino]-pyrimidin-4-yl}-benzonitrile] | < 0.1 | < 0.1 |
| COc1nc(Nc2nccc(-c3ccc(OC4CCN(C(=O)[C@@H]5CCCO5)CC4(F)F)c(C#N)c3)n2)ccc1N1CCN(C2COC2)CC1 (stereo partly drawn) [Example 254, 2-[3,3-Difluoro-1-((S)-tetrahydro-furan-2-carbonyl)-piperidin-4-yloxy]-5-{2-[6-methoxy-5-(4-oxetan-3-yl-piperazin-1-yl)-pyridin-2-ylamino]-pyrimidin-4-yl}-benzonitrile] | < 0.1 | < 0.1 |

Second part, the molecule after the results:

| IC50 (IKKε) [µM] | IC50 (TBK1) [µM] | Compound |
| --- | --- | --- |
| < 0.1 | < 0.1 | COc1nc(Nc2nccc(-c3ccc(OC4CCN(C(=O)[C@@H]5CC5(F)F)CC4(F)F)c(C#N)c3)n2)ccc1N1CCN(C2COC2)CC1 (stereo partly drawn) [Example 255, 2-[1-((S)-2,2-Difluoro-cyclopropanecarbonyl)-3,3-difluoro-piperidin-4-yloxy]-5-{2-[6-methoxy-5-(4-oxetan-3-yl-piperazin-1-yl)-pyridin-2-ylamino]-pyrimidin-4-yl}-benzonitrile] |
| < 0.1 | < 0.1 | COc1nc(Nc2nccc(-c3ccc(OC4CCN(C(=O)[C@@H]5CCC(=O)N5)CC4(F)F)c(C#N)c3)n2)ccc1N1CCN(C2COC2)CC1 (stereo partly drawn) [Example 256, 2,2-[3,3-Difluoro-1-((S)-5-oxo-pyrrolidine-2-carbonyl)-piperidin-4-yloxy]-5-{2-[6-methoxy-5-(4-oxetan-3-yl-piperazin-1-yl)-pyridin-2-ylamino]-pyrimidin-4-yl}-benzonitrile] |
| < 0.1 | < 0.1 | COc1nc(Nc2nccc(-c3ccc(OC4CCN(C(=O)[C@H](C)CO)CC4(F)F)c(C#N)c3)n2)ccc1N1CCN(C2COC2)CC1 (stereo partly drawn) [Example 257, 2-[3,3-Difluoro-1-((R)-3-hydroxy-2-methyl-propionyl)-piperidin-4-yloxy]-5-{2-[6-methoxy-5-(4-oxetan-3-yl-piperazin-1-yl)-pyridin-2-ylamino]-pyrimidin-4-yl}-benzonitrile] |
| < 0.1 | < 0.1 | CC[C@H](O)C(=O)N1CCC(Oc2ccc(-c3ccnc(Nc4ccc(N5CCN(C6COC6)CC5)c(OC)n4)n3)cc2C#N)C(F)(F)C1 (stereo partly drawn) [Example 258, 2-[3,3-Difluoro-1-((S)-2-hydroxy-butyryl)-piperidin-4-yloxy]-5-{2-[6-methoxy-5-(4-oxetan-3-yl-piperazin-1-yl)-pyridin-2-ylamino]-pyrimidin-4-yl}-benzonitrile] |
| < 0.1 | < 0.1 | COc1nc(Nc2nccc(-c3ccc(OC4CCN(C(=O)C(C)F)CC4(F)F)c(C#N)c3)n2)ccc1N1CCN(C2COC2)CC1 (centres unmarked) [Example 259, 2-[3,3-Difluoro-1-(2-fluoro-propionyl)-piperidin-4-yloxy]-5-{2-[6-methoxy-5-(4-oxetan-3-yl-piperazin-1-yl)-pyridin-2-ylamino]-pyrimidin-4-yl}-benzonitrile] |
| < 0.1 | < 0.1 | COc1nc(Nc2nccc(-c3ccc(OC4CCN(C(=O)[C@@H](O)CO)CC4(F)F)c(C#N)c3)n2)ccc1N1CCN(C2COC2)CC1 (stereo partly drawn) [Example 260, 2-[1-((S)-2,3-Dihydroxy-propionyl)-3,3-difluoro-piperidin-4-yloxy]-5-{2-[6-methoxy-5-(4-oxetan-3-yl-piperazin-1-yl)-pyridin-2-ylamino]-pyrimidin-4-yl}-benzonitrile] |
| < 0.1 | < 0.1 | COc1nc(Nc2nccc(-c3ccc(OC4CCN(C(=O)[C@@H](O)CO)CC4(F)F)c(C#N)c3)n2)ccc1N1CCN(C2COC2)[C@H](C)C1 (stereo partly drawn) [Example 262, 2-[1-((S)-2,3-Dihydroxy-propionyl)-3,3-difluoro-piperidin-4-yloxy]-5-{2-[6-methoxy-5-((R)-3-methyl-4-oxetan-3-yl-piperazin-1-yl)-pyridin-2-ylamino]-pyrimidin-4-yl}-benzonitrile] |
| < 0.1 | < 0.1 | COc1nc(Nc2nccc(-c3ccc(OC4(C)CCNCC4(F)F)c(C#N)c3)n2)ccc1N1CCN(C2COC2)CC1 (centres unmarked) [Example 263, 2-(3,3-Difluoro-4-methyl-piperidin-4-yloxy)-5-{2-[6-methoxy-5-(4-oxetan-3-yl-piperazin-1-yl)-pyridin-2-ylamino]-pyrimidin-4-yl}-benzonitrile] |
